Consider 30 compounds from publication PMC6271933, “Evaluation of the Toxicity of 5-Aryl-2-Aminoimidazole-Based Biofilm Inhibitors against Eukaryotic Cell Lines, Bone Cells and the Nematode Caenorhabditis elegans” (Molecules, 2014).

The test system of one data set is C. elegans. The data set is classed as in vivo, Caenorhabditis elegans. The following applies: for C. elegans % survival at 25 µM: after 7 days relative to viability at day 0, mean of at least two repeats. The protocol: Eggs of a double mutant (glp-4Dsek-1D) of C. elegans were grown on NGM/OP50 agar plates (NGM agar plates on the surface inoculated with 100 µL of an overnight culture of OP50 Escherichia coli and stored at 4 °C until use) at 25 °C until all nematodes had reached the L4 stage. Worms were collected and washed with M9 buffer (3 g/L KH2PO4, 6 g/L Na2HPO4, 5 g/L NaCl, 1 mM MgSO4). For toxicity testing, 40 to 50 worms were suspended in 250 μL M9 (supplemented with 10 µg/mL cholesterol, 75 µg/mL ampicillin and 100 µg/mL kanamycin) buffer in each well of 24-well microtiter plates, in the presence or absence (0.5% DMSO control) of 25, 100 or 200 µM of the test compounds and grown for 7 days at 25 °C. The percentage survival of the worms in the presence or absence of anti-biofilm compounds was calculated after 7 days relative to their viability at day 0.

Another data set deals with murine leukemia (L1210). Briefly: Cytostatic activity against tumor cell lines (cell number by Coulter counter). Format: cell-based. The settings on record: Mus musculus, L1210, 48 h; concentration inhibiting cell proliferation by 50%; two days incubation; mean of three repeats. How it is done: (§1) The IC50 was defined as the compound concentration required to inhibit cell proliferation by 50%. The therapeutic index (TI) was calculated as the ratio of the compound concentration producing toxicity (IC50) to the concentration needed to exert the desired ‘therapeutic’ effect on biofilms of Salmonella and Pseudomonas, indicated by the BIC50 (dose needed to prevent biofilm formation by 50%). The higher the therapeutic index, the broader the safety window of the compound.
(§2) Murine leukemia (L1210), human T-lymphocyte (CEM) and human cervix carcinoma (HeLa) were suspended at 300,000–500,000 cells/mL of culture medium, and 100 µL of a cell suspension was added to 100 µL of an appropriate dilution of the test compounds in 200 µL-wells of 96-well microtiter plates. After incubation at 37 °C for two (L1210), three (CEM) or four (HeLa) days, the cell number was determined using a Coulter counter. The IC50 was defined as the compound concentration required to inhibit cell proliferation by 50%.

Another data set relates to human T-lymphocyte (CEM). Described as above. Format: cell-based. The following applies: 72 h, concentration inhibiting cell proliferation by 50%, three days incubation, mean of three repeats. How it is done:
as §1, §2

Data set [1] concerns human cervix carcinoma (HeLa). The description is as above. The settings on record: 96 h, concentration inhibiting cell proliferation by 50%, four days incubation, mean of three repeats. Format: cell-based. How it is done:
as §1, §2

The subject of another data set is P. aeruginosa biofilm. The following applies: concentration preventing biofilm formation (at 25 °C) by 50%; as previously reported ref 13, 14, 15, 16; read-out: BIC50 P. aeruginosa; cited from earlier work.
The test system of another data set is S. Typhimurium biofilm. The following applies: concentration preventing biofilm formation (at 25 °C) by 50%; as previously reported ref 13, 14, 15, 16; read-out: BIC50 S. Typhimurium; cited from earlier work.

SMILES strings stand for the structures. Values joined by “and” are separate entries in the source; they are usually repeats but may differ in a detail not shown here. Equal values may be shown once.

As for `Nc1ncc(-c2ccccc2)[nH]1` [compound 1], the “C. elegans % survival at 25 µM” value in the data set on C. elegans stood at 89.8%. Also, the “effect on C. elegans survival at 100 µM” value with C. elegans (100 µM, 7 days of exposure) is given as “none of the compounds significantly affect”. Also, the “effect on C. elegans survival at 200 µM” value in the data set with C. elegans (200 µM, 7 days of exposure) is recorded as “do not significantly affect survival”. Besides, the IC50 was 62.9 µM with murine leukemia (L1210); 94.3 µM in the data set with human T-lymphocyte (CEM); 145 µM in data set [1]; 72.6 µM in the data set on P. aeruginosa biofilm; 130 µM in the data set on S. Typhimurium biofilm.
Consider `Nc1ncc(-c2ccc(Cl)cc2)[nH]1` [compound 2], for which the “C. elegans % survival at 25 µM” value in the data set with C. elegans was determined as 84.9%. Moreover, the IC50 in the data set on murine leukemia (L1210) is 77.5 µM; with human T-lymphocyte (CEM), 49.6 µM; in data set [1], 72.3 µM; in the data set on P. aeruginosa biofilm it was 3.5 µM; with S. Typhimurium biofilm, 16 µM.
Take `Nc1ncc(-c2ccc(-c3ccccc3)cc2)[nH]1` [compound 3]: the IC50 in the data set on murine leukemia (L1210) was 37.4 µM; with human T-lymphocyte (CEM) it was 13.6 µM; in data set [1], 34 µM; with P. aeruginosa biofilm, 8.6 µM; in the data set with S. Typhimurium biofilm, 17.3 µM.
Turning to `Nc1ncc(-c2ccc([N+](=O)[O-])cc2)[nH]1` [compound 4], the “C. elegans % survival at 25 µM” value with C. elegans was found to be 97.3%. In addition, the IC50 in the data set on murine leukemia (L1210) was 83.3 µM; in the data set with human T-lymphocyte (CEM), 63.7 µM; in data set [1], 108 µM; in the data set on P. aeruginosa biofilm, 34.5 µM; in the data set with S. Typhimurium biofilm it was 17.6 µM.
As to `Nc1ncc(-c2ccc(Br)cc2)[nH]1` [compound 5, 5-(p-bromophenyl)-2-aminoimidazole], the “C. elegans % survival at 25 µM” value in the data set with C. elegans was 90.6%. In addition, the IC50 is 10.1 µM with murine leukemia (L1210); 13.9 µM with human T-lymphocyte (CEM); 21.8 µM in data set [1]; 3.2 µM in the data set with P. aeruginosa biofilm; 47.9 µM in the data set on S. Typhimurium biofilm.
Regarding `CCCCCCCCn1c(-c2ccccc2)cnc1N` [compound 6], the “C. elegans % survival at 25 µM” value with C. elegans was 92.5%. In addition, the IC50 was 3.2 µM in the data set with murine leukemia (L1210); 468 µM in the data set with human T-lymphocyte (CEM); 3 µM in data set [1]; 18.5 µM in the data set on P. aeruginosa biofilm; 11.9 µM in the data set with S. Typhimurium biofilm.
In the case of `CCCCCCCCCCCCCn1c(-c2ccc(Cl)cc2)cnc1N` [compound 8], the IC50 in the data set with murine leukemia (L1210) was 7.2 µM; with human T-lymphocyte (CEM), 6.4 µM; in data set [1], 4.5 µM; in the data set on P. aeruginosa biofilm, 33.9 µM; with S. Typhimurium biofilm, 19.5 µM.
For `CCCCCCCn1c(-c2ccc(-c3ccccc3)cc2)cnc1N` [compound 9], the IC50 in the data set on murine leukemia (L1210) was 7.5 µM; in the data set on human T-lymphocyte (CEM) it was 8.1 µM; in data set [1], 8.7 µM; in the data set on P. aeruginosa biofilm, 25.2 µM; in the data set with S. Typhimurium biofilm, 9.3 µM.
For the compound `CCCCCCCCn1c(-c2ccc(-c3ccccc3)cc2)cnc1N` [compound 10], the IC50 in the data set on murine leukemia (L1210) is 7.8 µM; in the data set with human T-lymphocyte (CEM) it was 8.3 µM; in data set [1], 6.6 µM; in the data set on P. aeruginosa biofilm, 8.9 µM; in the data set with S. Typhimurium biofilm, 3.3 µM.
For `Nc1ncc(-c2ccc(-c3ccccc3)cc2)n1C1CCCC1` [compound 11], the IC50 in the data set on murine leukemia (L1210) is 4.3 µM; in the data set with human T-lymphocyte (CEM) it was 2.9 µM; in data set [1], 8.2 µM; in the data set on P. aeruginosa biofilm it was 353 µM; in the data set on S. Typhimurium biofilm, 7.5 µM.
As to `Nc1ncc(-c2ccc(-c3ccccc3)cc2)n1C1CCCCCC1` [compound 12], the IC50 in the data set with murine leukemia (L1210) was 8.1 µM; in the data set on human T-lymphocyte (CEM), 5.4 µM; in data set [1] it was 6.6 µM; with P. aeruginosa biofilm, 6.6 µM; in the data set with S. Typhimurium biofilm it was ~12.5 µM and 12.5 µM.
Consider `Nc1ncc(-c2ccc(-c3ccccc3)cc2)n1C1CCCCCCC1` [compound 13], for which the IC50 was 6.9 µM with murine leukemia (L1210); 4.9 µM in the data set with human T-lymphocyte (CEM); 6.9 µM in data set [1]; 3.2 µM in the data set on P. aeruginosa biofilm; ~22.9 µM and 22.9 µM with S. Typhimurium biofilm.
Regarding `CCCCCCCCn1c(-c2ccc(F)cc2)cnc1N` [compound 14], the IC50 in the data set with murine leukemia (L1210) was 3.5 µM; in the data set with human T-lymphocyte (CEM), 7.3 µM; in data set [1], 8.6 µM; in the data set on P. aeruginosa biofilm, 4.9 µM; with S. Typhimurium biofilm it was ~10.8 µM and 10.8 µM.
Turning to `CCCCCCCCn1c(-c2ccc(SC)cc2)cnc1N` [compound 15, N1-octyl-5-[4-SMePh]-2AI], the IC50 is 4.1 µM in the data set with murine leukemia (L1210); 7.2 µM in the data set on human T-lymphocyte (CEM); 6.3 µM in data set [1]; 2.8 µM in the data set on P. aeruginosa biofilm; 6.7 µM in the data set with S. Typhimurium biofilm.
On to `CCCCCCCCn1c(-c2cccc(Br)c2)cnc1N` [compound 16], for which the IC50 with murine leukemia (L1210) is 6.9 µM; with human T-lymphocyte (CEM), 9.7 µM; in data set [1] it was 8 µM; in the data set with P. aeruginosa biofilm, 40.6 µM; in the data set with S. Typhimurium biofilm, 11.2 µM.
In the case of `COc1cccc(CCn2c(-c3ccc(Cl)c(Cl)c3)cnc2N)c1` [compound 17], the IC50 with murine leukemia (L1210) is 6.9 µM; in the data set with human T-lymphocyte (CEM), 8.6 µM; in data set [1], 6.6 µM; in the data set on S. Typhimurium biofilm, > 400 µM.
Consider `CCCCNc1ncc(-c2ccccc2)[nH]1` [compound 18], for which the IC50 was 46.4 µM in the data set on murine leukemia (L1210); 667 µM in the data set with human T-lymphocyte (CEM); 19.5 µM in data set [1]; 31.8 µM in the data set with P. aeruginosa biofilm; 25.3 µM with S. Typhimurium biofilm.
As for `CC(C)CNc1ncc(-c2ccccc2)[nH]1` [compound 19], the IC50 was 83.6 µM in the data set with murine leukemia (L1210); 383 µM in the data set with human T-lymphocyte (CEM); 91.4 µM in data set [1]; 1.2 µM in the data set with P. aeruginosa biofilm; 4.9 µM in the data set with S. Typhimurium biofilm.
For the compound `CCCCNc1ncc(-c2ccc(Cl)cc2)[nH]1` [compound 21], the IC50 with murine leukemia (L1210) was found to be 40 µM; in the data set on human T-lymphocyte (CEM), 375 µM; in data set [1], 34.7 µM.
In the case of `CCCCCNc1ncc(-c2ccc(Cl)cc2)[nH]1` [compound 23], the IC50 in the data set with murine leukemia (L1210) is 22 µM; in the data set on human T-lymphocyte (CEM) it was 323 µM; in data set [1], 19.8 µM; with P. aeruginosa biofilm, ~6.3 µM and 6.3 µM; in the data set with S. Typhimurium biofilm it was > 400 µM.
Turning to `CC(C)CNc1ncc(-c2ccc(Br)cc2)[nH]1` [compound 26], the IC50 in the data set with murine leukemia (L1210) was 31.7 µM; in the data set on human T-lymphocyte (CEM), 306 µM; in data set [1] it was 22.6 µM; in the data set on P. aeruginosa biofilm, 1.2 µM; in the data set on S. Typhimurium biofilm, 2.9 µM.
`CCCCCNc1ncc(-c2ccc(Br)cc2)[nH]1` [compound 27]: the IC50 in the data set with murine leukemia (L1210) is 14.9 µM; with human T-lymphocyte (CEM) it was 375 µM; in data set [1], 16.3 µM; in the data set with P. aeruginosa biofilm, 10.2 µM; in the data set on S. Typhimurium biofilm it was 3.1 µM.
Turning to `Brc1ccc(-c2cnc(NC3CCCC3)[nH]2)cc1` [compound 28], the IC50 in the data set with murine leukemia (L1210) is 32.7 µM; with human T-lymphocyte (CEM) it was 674 µM; in data set [1] it was 32.7 µM; in the data set on P. aeruginosa biofilm it was 7.2 µM; with S. Typhimurium biofilm, 12.1 µM.
For the compound `Clc1ccc(-c2cnc(NC3CCCC3)[nH]2)cc1Cl` [compound 29], the IC50 is 76.1 µM in the data set with murine leukemia (L1210); 156 µM in the data set with human T-lymphocyte (CEM); 79.8 µM in data set [1]; 7.9 µM with P. aeruginosa biofilm; 5.7 µM in the data set with S. Typhimurium biofilm.
Regarding `COc1ccc(-c2nc(N)[nH]c2-c2ccccc2)cc1` [compound 30], the IC50 with murine leukemia (L1210) was 64.1 µM; in the data set with human T-lymphocyte (CEM) it was 52.8 µM; in data set [1], 45.2 µM; in the data set on S. Typhimurium biofilm, 77.1 µM.
As to `Nc1nc(-c2ccc(Cl)cc2)c(-c2ccccc2)[nH]1` [compound 31], the IC50 was 59.3 µM in the data set on murine leukemia (L1210), 48.2 µM with human T-lymphocyte (CEM), 40.8 µM in data set [1] and 46.9 µM in the data set on S. Typhimurium biofilm.
As for `Cc1ccc(-c2nc(N)[nH]c2-c2ccc(Cl)cc2)cc1` [compound 32], the IC50 was 12.3 µM with murine leukemia (L1210), 10.2 µM in the data set on human T-lymphocyte (CEM), 9.5 µM in data set [1] and 12.9 µM in the data set with S. Typhimurium biofilm.
Turning to `Nc1nc(-c2ccc(C(F)(F)F)cc2)c(-c2ccc(Cl)cc2)[nH]1` [compound 33], the IC50 with murine leukemia (L1210) is 41.5 µM; in the data set on human T-lymphocyte (CEM), 35.5 µM; in data set [1], 26.1 µM; in the data set with S. Typhimurium biofilm it was 10.8 µM.
`CCCCCOc1ccc(Cc2nc(N)n(Cc3ccccc3)c2-c2ccc(C)cc2)cc1` [compound 35]: the IC50 in the data set with murine leukemia (L1210) is 8.6 µM; with human T-lymphocyte (CEM), 8.4 µM; in data set [1] it was 14.8 µM; in the data set with P. aeruginosa biofilm it was 27.4 µM; with S. Typhimurium biofilm, 10.3 µM.
As for `COc1ccc(-c2cnc(NCCCn3cc(-c4ccc(Br)cc4)nn3)[nH]2)cc1` [compound 38], the IC50 is 18.4 µM in the data set with murine leukemia (L1210); 597 µM in the data set on human T-lymphocyte (CEM); 16.8 µM in data set [1]; 42.7 µM with P. aeruginosa biofilm; 91.2 µM in the data set on S. Typhimurium biofilm.
